From patent US20080234262A1 (Wyeth, priority 2007, published 2008) come the findings set out here.

One test relates to prostate line LNCap. Put plainly: In vitro cell culture growth assay (MTS), LNCap.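 Note: viable cell density read by absorbance at 490 nm, growth expressed as percent of vehicle-treated cells on the same plate.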 In kind it is cell-based, human. The note with it: Homo sapiens, LNCaP, 72 h, LNCap cells, three days after drug treatment.
Another test deals with breast line MDA468. Briefly: In vitro cell culture growth assay (MTS), MDA468. As to conditions: Homo sapiens, 72 h, MDA468 cells, three days after drug treatment. In kind it is cell-based, human. A digest of the protocol:
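Growth measured as percent of same-plate vehicle control by MTS metabolic dye conversion (A490). Breast MDA468 and prostate LNCap cells, plated a day ahead, were exposed to compounds for 3 days.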

The target in a further test is PI3K (Homo sapiens, UniProt P42336). Put plainly: Fluorescence polarization assay for PI3K.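 Note: PI3K kinase reaction on PIP2 with ATP, 30-60 min, product sensed by GST-GRP with red probe in fluorescence polarization (mP), controls without enzyme and at zero time.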 In kind it is biochemical. The note with it: PI3Kα; read-out: PI3Kα IC50.
Sequence of PI3K (P42336 whole entry): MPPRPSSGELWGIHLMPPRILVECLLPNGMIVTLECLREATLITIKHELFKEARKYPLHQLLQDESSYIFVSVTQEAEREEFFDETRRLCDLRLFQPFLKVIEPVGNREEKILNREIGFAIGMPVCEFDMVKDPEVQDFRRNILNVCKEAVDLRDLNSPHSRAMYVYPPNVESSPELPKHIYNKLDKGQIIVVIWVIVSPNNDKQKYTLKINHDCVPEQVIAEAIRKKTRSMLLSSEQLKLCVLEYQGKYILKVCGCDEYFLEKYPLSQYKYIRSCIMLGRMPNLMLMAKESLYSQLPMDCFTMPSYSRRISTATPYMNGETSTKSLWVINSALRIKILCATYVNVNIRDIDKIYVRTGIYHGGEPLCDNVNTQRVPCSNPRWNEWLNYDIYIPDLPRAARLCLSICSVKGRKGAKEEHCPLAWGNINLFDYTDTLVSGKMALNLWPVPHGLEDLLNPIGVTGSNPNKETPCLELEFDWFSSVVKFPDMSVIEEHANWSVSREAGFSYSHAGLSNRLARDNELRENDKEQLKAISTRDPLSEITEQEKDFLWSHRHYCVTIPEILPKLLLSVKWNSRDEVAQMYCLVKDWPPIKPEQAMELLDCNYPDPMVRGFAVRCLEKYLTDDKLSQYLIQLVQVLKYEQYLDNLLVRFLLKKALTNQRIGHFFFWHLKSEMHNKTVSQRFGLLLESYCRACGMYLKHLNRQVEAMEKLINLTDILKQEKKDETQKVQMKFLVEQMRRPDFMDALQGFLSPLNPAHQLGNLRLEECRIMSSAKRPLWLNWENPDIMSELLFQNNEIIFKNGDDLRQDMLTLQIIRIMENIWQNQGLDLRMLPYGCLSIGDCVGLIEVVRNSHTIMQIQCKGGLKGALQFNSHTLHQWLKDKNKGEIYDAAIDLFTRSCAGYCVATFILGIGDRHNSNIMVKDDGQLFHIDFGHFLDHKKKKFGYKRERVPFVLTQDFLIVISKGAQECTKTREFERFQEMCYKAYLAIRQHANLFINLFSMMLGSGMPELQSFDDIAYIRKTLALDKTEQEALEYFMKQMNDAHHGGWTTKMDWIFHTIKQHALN
Sequence of PI3K (P27986 whole entry partner): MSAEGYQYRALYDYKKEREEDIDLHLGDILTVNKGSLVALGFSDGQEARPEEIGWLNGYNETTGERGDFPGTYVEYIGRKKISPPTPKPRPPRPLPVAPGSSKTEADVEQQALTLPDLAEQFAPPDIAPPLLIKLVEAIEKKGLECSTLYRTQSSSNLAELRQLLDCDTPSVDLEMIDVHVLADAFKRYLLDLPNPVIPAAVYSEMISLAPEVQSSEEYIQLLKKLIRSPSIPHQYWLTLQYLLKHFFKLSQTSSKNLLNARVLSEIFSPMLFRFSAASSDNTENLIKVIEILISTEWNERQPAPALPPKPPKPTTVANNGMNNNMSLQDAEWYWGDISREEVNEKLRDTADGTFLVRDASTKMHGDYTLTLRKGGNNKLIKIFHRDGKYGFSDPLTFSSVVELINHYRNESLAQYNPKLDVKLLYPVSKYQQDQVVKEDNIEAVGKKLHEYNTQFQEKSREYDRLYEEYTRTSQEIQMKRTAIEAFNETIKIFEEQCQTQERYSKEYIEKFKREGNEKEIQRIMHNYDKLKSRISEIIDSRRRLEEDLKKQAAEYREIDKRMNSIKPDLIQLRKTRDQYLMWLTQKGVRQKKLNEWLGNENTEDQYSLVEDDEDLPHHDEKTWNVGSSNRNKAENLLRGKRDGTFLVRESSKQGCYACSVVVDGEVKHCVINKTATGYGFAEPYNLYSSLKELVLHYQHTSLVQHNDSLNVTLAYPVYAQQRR

On to `CNC(=NC#N)Nc1ccc(-c2nc(N3CCOCC3)c3cnn(C4CCN(C(=O)c5cccnc5)CC4)c3n2)cc1` [Example 412, 2-cyano-1-methyl-3-(4-{4-morpholin-4-yl-1-[1-(pyridin-3-ylcarbonyl)piperidin-4-yl]-1H-pyrazolo[3,4-d]pyrimidin-6-yl}phenyl)guanidine], for which the IC50 – broadly, the concentration that gives 50% inhibition – came to 3000 nM with prostate line LNCap, 6000 nM with breast line MDA468 and 382 nM at PI3K.

Turning to `O=C(Nc1ccc(-c2nc(N3CCOCC3)c3cnn(C4CCN(C(=O)c5cccnc5)CC4)c3n2)cc1)Nc1ccsc1` [Example 414, 1-(4-{4-morpholin-4-yl-1-[1-(pyridin-3-ylcarbonyl)piperidin-4-yl]-1H-pyrazolo[3,4-d]pyrimidin-6-yl}phenyl)-3-(3-thienyl)urea], the half-maximal inhibitory concentration (IC50) with prostate line LNCap came to 40 nM; in the test with breast line MDA468, 100 nM; on PI3K it was 18 nM.

As to `O=C(Nc1ccc(-c2nc(N3CCOCC3)c3cnn(C4CCN(C(=O)c5cccnc5)CC4)c3n2)cc1)NC1CC1` [Example 415, 1-cyclopropyl-3-(4-{4-morpholin-4-yl-1-[1-(pyridin-3-ylcarbonyl)piperidin-4-yl]-1H-pyrazolo[3,4-d]pyrimidin-6-yl}phenyl)urea], the values for the concentration for half-maximal inhibition (IC50) in the test with prostate line LNCap, in the test on breast line MDA468 and on PI3K were 370 nM, 700 nM and 357 nM, respectively.

With `CNC(=O)Nc1ccc(-c2nc(N3CCOCC3)c3cnn(C4CCN(C(=O)c5ccccn5)CC4)c3n2)cc1` [Example 418, 1-methyl-3-(4-{4-morpholin-4-yl-1-[1-(pyridin-2-ylcarbonyl)piperidin-4-yl]-1H-pyrazolo[3,4-d]pyrimidin-6-yl}phenyl)urea], the results for the IC50 with prostate line LNCap, in the test with breast line MDA468 and on PI3K were 120 nM, 200 nM and 124 nM, respectively.

Take `CNC(=O)Nc1ccc(-c2nc(N3CCOCC3)c3cnn(C4CCN(C(=O)c5cnccc5C)CC4)c3n2)cc1` [Example 419, 1-methyl-3-[4-(1-{1-[(4-methylpyridin-3-yl)carbonyl]piperidin-4-yl}-4-morpholin-4-yl-1H-pyrazolo[3,4-d]pyrimidin-6-yl)phenyl]urea]: the values for the IC50 in the test on prostate line LNCap, in the test with breast line MDA468 and on PI3K were 320 nM, 400 nM and 231 nM, respectively.

As for `CNC(=O)Nc1ccc(-c2nc(N3CCOCC3)c3cnn(C4CCN(C(=O)c5ccc(C)nc5)CC4)c3n2)cc1` [Example 420, 1-methyl-3-[4-(1-{1-[(6-methylpyridin-3-yl)carbonyl]piperidin-4-yl}-4-morpholin-4-yl-1H-pyrazolo[3,4-d]pyrimidin-6-yl)phenyl]urea], the IC50 was determined as 330 nM in the test on prostate line LNCap, 300 nM with breast line MDA468 and 119 nM at PI3K.

For the molecule `CNC(=O)Nc1ccc(-c2nc(N3CCOCC3)c3cnn(C4CCN(C(=O)c5ccc(F)nc5)CC4)c3n2)cc1` [Example 421, 1-[4-(1-{1-[(6-fluoropyridin-3-yl)carbonyl]piperidin-4-yl}-4-morpholin-4-yl-1H-pyrazolo[3,4-d]pyrimidin-6-yl)phenyl]-3-methylurea], the IC50 in the test on prostate line LNCap was 250 nM; in the test on breast line MDA468, 300 nM; on PI3K, 100 nM.

Consider `CNC(=O)Nc1ccc(-c2nc(N3CCOCC3)c3cnn(C4CCN(C(=O)c5cnccn5)CC4)c3n2)cc1` [Example 422, 1-methyl-3-(4-{4-morpholin-4-yl-1-[1-(pyrazin-2-ylcarbonyl)piperidin-4-yl]-1H-pyrazolo[3,4-d]pyrimidin-6-yl}phenyl)urea], for which the IC50 in the test with prostate line LNCap was determined as 320 nM; in the test with breast line MDA468 it was 400 nM; on PI3K, 198 nM.

In the case of `CNC(=O)Nc1ccc(-c2nc(N3CCOCC3)c3cnn(C4CCN(C(=O)c5cccc(C(C)=O)c5)CC4)c3n2)cc1` [Example 423, 1-(4-{1-[1-(3-acetylbenzoyl)piperidin-4-yl]-4-morpholin-4-yl-1H-pyrazolo[3,4-d]pyrimidin-6-yl}phenyl)-3-methylurea], the half-maximal inhibitory concentration (IC50) was determined as 110 nM in the test with prostate line LNCap, 200 nM in the test with breast line MDA468 and 83 nM on PI3K.
